These results are taken from BindingDB's records for PubMed 27607900 (Cardiff University, 2016).

Each structure is given as a SMILES string.

The subject of one assay is Enterococcus faecalis. The experiment in a line: Antimicrobial activity against Enterococcus faecalis ATCC 29212 assessed as microbial growth inhibition.
A short description of assay [1]: Inhibition of ACT (unknown origin).

For the compound `CCCC(C)CC(C)CC(C)/C=C(C)/C=C/C(O)C(C)C(=O)OC1C(O)CN2CC1NC[C@H]1O[C@@H](OC([C@H]3O[C@@H](n4ccc(=O)[nH]c4=O)[C@H](O)[C@@H]3OS(=O)(=O)O)C2C(=O)O)[C@H](O)[C@@H]1O` (some centres not stated), the IC50 in the assay with Enterococcus faecalis is 12 nM.
Take `CC(C)OC(=O)[C@H](Cc1ccccc1)NP(=O)(N[C@@H](Cc1ccccc1)C(=O)OC(C)C)OCOCCn1cnc2c(N)nc(F)nc21`: the IC50 in assay [1] worked out at 145 nM.

By IC50 is commonly meant the concentration that gives 50% inhibition.
